Literature values, collected in patent US20100003319A1, “RALOXIFENE IMMEDIATE RELEASE TABLETS” (GLENMARK GENERICS LTD., priority 2008, published 2010).

Solubility in water: very slightly soluble
SMILES: O=C(c1ccc(OCCN2CCCCC2)cc1)c1c(-c2ccc(O)cc2)sc2cc(O)ccc12 [raloxifene, [6-hydroxy-2-(4-hydroxyphenyl)-benzothiophen-3-yl]-[4-[2-(1-piperidyl)ethoxy]phenyl]-methanone]
